Tests used:
FAAH [1] = target: T1, FAAH (Homo sapiens, UniProt O00519); assay: In vitro competitive activity-based protein profiling, FAAH, human; settings: for inhibition at 1 µM: read-out: FAAH % inh. 1 μM (human)
T1 sequence (O00519 1-579): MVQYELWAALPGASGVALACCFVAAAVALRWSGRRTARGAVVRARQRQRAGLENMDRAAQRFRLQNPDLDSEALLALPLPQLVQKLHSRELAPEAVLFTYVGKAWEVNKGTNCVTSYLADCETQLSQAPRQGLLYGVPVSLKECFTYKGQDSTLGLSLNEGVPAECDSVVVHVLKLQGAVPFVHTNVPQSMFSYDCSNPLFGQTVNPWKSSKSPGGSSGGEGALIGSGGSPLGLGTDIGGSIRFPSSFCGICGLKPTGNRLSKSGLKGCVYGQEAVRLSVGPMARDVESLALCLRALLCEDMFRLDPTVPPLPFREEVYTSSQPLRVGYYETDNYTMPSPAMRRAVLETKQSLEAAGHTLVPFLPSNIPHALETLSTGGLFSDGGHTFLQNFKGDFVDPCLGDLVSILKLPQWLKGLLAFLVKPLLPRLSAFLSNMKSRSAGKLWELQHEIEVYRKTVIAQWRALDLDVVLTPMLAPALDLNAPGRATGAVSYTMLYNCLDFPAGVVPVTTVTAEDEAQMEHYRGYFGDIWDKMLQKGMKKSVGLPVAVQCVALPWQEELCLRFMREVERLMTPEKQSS

MAGL [2] = target: T2, MAGL (Homo sapiens, UniProt Q99685); assay: In vitro competitive activity-based protein profiling, MAGL, human; settings: read-out: MAGL % inh. 1 μM (human)
T2 sequence (Q99685 1-303): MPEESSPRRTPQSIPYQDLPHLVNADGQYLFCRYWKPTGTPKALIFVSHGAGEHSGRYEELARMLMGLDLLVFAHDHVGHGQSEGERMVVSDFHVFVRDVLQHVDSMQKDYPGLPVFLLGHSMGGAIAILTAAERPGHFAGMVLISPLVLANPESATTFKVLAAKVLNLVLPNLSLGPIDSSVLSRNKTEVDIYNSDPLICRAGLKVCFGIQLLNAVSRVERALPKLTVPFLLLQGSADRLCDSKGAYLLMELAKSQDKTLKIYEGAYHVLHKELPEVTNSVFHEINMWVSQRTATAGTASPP

MAGL [3] = target: T3, MAGL (Mus musculus, UniProt O35678); assay: In vitro competitive activity-based protein profiling, MAGL, mouse; settings: read-out: MAGL % inh. 1 μM (mouse)
T3 sequence (O35678 1-303): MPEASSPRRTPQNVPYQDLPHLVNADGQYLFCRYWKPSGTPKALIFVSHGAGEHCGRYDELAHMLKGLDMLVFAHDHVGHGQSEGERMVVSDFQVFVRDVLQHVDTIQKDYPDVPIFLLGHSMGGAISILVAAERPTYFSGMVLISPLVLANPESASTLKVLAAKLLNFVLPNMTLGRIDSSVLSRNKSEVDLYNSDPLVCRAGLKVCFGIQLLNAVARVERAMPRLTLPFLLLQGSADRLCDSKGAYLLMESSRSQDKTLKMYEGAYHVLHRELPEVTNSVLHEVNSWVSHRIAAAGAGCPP

FAAH [4] = target: T4, FAAH (Mus musculus, UniProt O08914); assay: Mouse brain proteomes from inhibitor treated mice (oral gavage, sacrificed 4 h after administration), FAAH; assay type: in vivo; parameters: mouse brain membrane fraction for mouse assays; from tissue; host or cells: mouse brain (membrane fraction in vitro; brain proteomes of treated C57Bl/6J mice in vivo); settings: 5 mg/kg oral gavage, brain proteome 4 h after administration, read-out: FAAH % inh. 5 mg/kg (mouse)
T4 sequence (O08914 1-579): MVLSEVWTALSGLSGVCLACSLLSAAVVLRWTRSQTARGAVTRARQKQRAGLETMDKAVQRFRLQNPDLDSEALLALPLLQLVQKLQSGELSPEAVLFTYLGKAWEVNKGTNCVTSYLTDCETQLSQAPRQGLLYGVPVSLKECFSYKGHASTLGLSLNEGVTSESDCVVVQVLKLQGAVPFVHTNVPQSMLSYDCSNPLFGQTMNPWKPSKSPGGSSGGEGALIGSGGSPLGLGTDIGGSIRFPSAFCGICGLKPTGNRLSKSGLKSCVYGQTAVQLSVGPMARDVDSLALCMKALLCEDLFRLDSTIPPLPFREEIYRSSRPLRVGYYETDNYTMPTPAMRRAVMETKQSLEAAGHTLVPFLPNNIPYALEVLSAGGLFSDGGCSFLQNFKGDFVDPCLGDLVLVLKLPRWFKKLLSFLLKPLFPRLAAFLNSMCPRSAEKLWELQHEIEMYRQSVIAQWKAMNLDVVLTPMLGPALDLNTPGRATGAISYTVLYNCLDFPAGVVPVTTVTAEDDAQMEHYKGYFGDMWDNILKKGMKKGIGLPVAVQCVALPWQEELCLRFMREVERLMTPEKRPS

MAGL [5] = target: T3, MAGL; assay: Mouse brain proteomes from inhibitor treated mice (oral gavage, sacrificed 4 h after administration); assay type: in vivo; parameters: mouse brain membrane fraction for mouse assays; from tissue; host or cells: mouse brain (membrane fraction in vitro; brain proteomes of treated C57Bl/6J mice in vivo); settings: 5 mg/kg oral gavage, brain proteome 4 h after administration, read-out: MAGL % inh. 5 mg/kg (mouse)
FAAH [6] = target: T4, FAAH; assay: In vitro competitive activity-based protein profiling, FAAH, mouse; settings: read-out: FAAH % inh. 1 μM (mouse)

inhibition at 1 µM (FAAH [1]) [%]	inhibition at 1 µM (MAGL [2]) [%]	inhibition at 1 µM (MAGL [3]) [%]	inhibition at 5 mg/kg (FAAH [4]) [%]	inhibition at 5 mg/kg (MAGL [5]) [%]	inhibition at 1 µM (FAAH [6]) [%]	IC50 (FAAH [1]) [µM]	Structure (SMILES)
0 to 25	> 75	> 75	0 to 25	0 to 25	0 to 25		CC(C)(O)C1CCN(c2cc(C(F)(F)F)ccc2CN2CCN(C(=O)n3ccc(C(=O)O)n3)CC2)CC1 [Example 109, 1-(4-(2-(4-(2-hydroxypropan-2-yl)piperidin-1-yl)-4-(trifluoromethyl)benzyl)piperazine-1-carbonyl)-1H-pyrazole-3-carboxylic acid]
0 to 25	> 75	> 75	0 to 25	0 to 25	0 to 25		O=C(O)c1ccn(C(=O)N2CCN(Cc3ccc(C(F)(F)F)cc3N3CCN(C4CC4)CC3)CC2)n1 [Example 6, 1-(4-(2-(4-Cyclopropylpiperazin-1-yl)-4-(trifluoromethyl)benzyl)piperazine-1-carbonyl)-1H-pyrazole-3-carboxylic Acid]
0 to 25	> 75	> 75	0 to 25	0 to 25	0 to 25	1 to 10	O=C(O)c1ccn(C(=O)N2CCN(Cc3ccc(C(F)(F)F)cc3N3CC[C@H](F)C3)CC2)n1 [Example 92, (S)-1-(4-(2-(3-fluoropyrrolidin-1-yl)-4-(trifluoromethyl)benzyl)-piperazine-1-carbonyl)-1H-pyrazole-3-carboxylic acid]
0 to 25	> 75	> 75	0 to 25	0 to 25	0 to 25		O=C(O)c1ccn(C(=O)N2CCN(Cc3cccc(Cl)c3N3CC4COCC4C3)CC2)n1 (stereo not shown) [Example 211, 1-(4-(3-chloro-2-(tetrahydro-1H-furo[3,4-c]pyrrol-5(3H)-yl)benzyl)piperazine-1-carbonyl)-1H-pyrazole-3-carboxylic acid]
> 75	> 75	> 75	0 to 25	> 75	> 75	0.1 to 1	NC(=O)c1ccn(C(=O)N2CCN(Cc3cccc(C(F)(F)F)c3N3CCOCC3)CC2)n1 [Example 199, 1-(4-(2-morpholino-3-(trifluoromethyl)benzyl)piperazine-1-carbonyl)-1H-pyrazole-3-carboxamide]
0 to 25	> 75	> 75	0 to 25	0 to 25	0 to 25		O=C(O)c1ccn(C(=O)N2CCN(Cc3ccc(C(F)(F)F)cc3N3CC[C@@H](F)C3)CC2)n1 [Example 101, (R)-1-(4-(2-(3-fluoropyrrolidin-1-yl)-4-(trifluoromethyl)benzyl)piperazine-1-carbonyl)-1H-pyrazole-3-carboxylic acid]

The next lines start with the compound.

Structure (SMILES)	inhibition at 1 µM (FAAH [1]) [%]	inhibition at 1 µM (MAGL [2]) [%]	inhibition at 1 µM (MAGL [3]) [%]	inhibition at 5 mg/kg (FAAH [4]) [%]	inhibition at 5 mg/kg (MAGL [5]) [%]	inhibition at 1 µM (FAAH [6]) [%]	IC50 (FAAH [1]) [µM]
O=C(O)c1nn(C(=O)N2CCC3(CCN(Cc4cc(Cl)ccc4C(F)(F)F)C3)CC2)cc1Cl [Example 133, 4-chloro-1-(2-(5-chloro-2-(trifluoromethyl)benzyl)-2,8-diazaspiro[4.5]decane-8-carbonyl)-1H-pyrazole-3-carboxylic acid]	> 75	> 75	> 75	0 to 25	0 to 25	> 75	0.1 to 1
O=C(O)c1ccn(C(=O)N2CCN(Cc3cccc(Oc4ccc(Cl)cc4)c3)CC2)n1 [Example 98, 1-(4-(3-(4-chlorophenoxy)benzyl)piperazine-1-carbonyl)-1H-pyrazole-3-carboxylic acid]	> 75	> 75	> 75	0 to 25	0 to 25	> 75	0.1 to 1
O=C(O)c1ccn(C(=O)N2CC3CN(Cc4cc(Cl)cc(C(F)(F)F)c4)CC3C2)n1 (stereo not shown) [Example 124, 1-(5-(3-chloro-5-(trifluoromethyl)benzyl)octahydro-pyrrolo[3,4-c]pyrrole-2-carbonyl)-1H-pyrazole-3-carboxylic acid]	50 to 75	> 75	> 75	25 to 50	0 to 25	> 75	0.1 to 1
Cc1cn(C(=O)N2CCC3(CCN(Cc4cc(Cl)ccc4C(F)(F)F)C3)CC2)nc1C(=O)O [Example 130, 1-(2-(5-chloro-2-(trifluoromethyl)benzyl)-2,8-diazaspiro[4.5]decane-8-carbonyl)-4-methyl-1H-pyrazole-3-carboxylic acid]	50 to 75	> 75	> 75	0 to 25	0 to 25	50 to 75	0.1 to 1
O=C(O)c1ccn(C(=O)N2CCN(Cc3ccc(C(F)(F)F)c(N4C5CCC4COC5)c3)CC2)n1 [Example 40, 1-(4-(3-(3-oxa-8-azabicyclo[3.2.1]octan-8-yl)-4-(trifluoromethyl)benzyl)piperazine-1-carbonyl)-1H-pyrazole-3-carboxylic acid]	0 to 25	> 75	> 75	0 to 25	0 to 25	0 to 25	
O=C(O)c1ccn(C(=O)N2CCC3(CCCN3Cc3ccc(C(F)(F)F)cc3N3CCCC3)CC2)n1 [Example 93, 1-(1-(2-(pyrrolidin-1-yl)-4-(trifluoromethyl)benzyl)-1,8-diazaspiro[4.5]decane-8-carbonyl)-1H-pyrazole-3-carboxylic acid]	0 to 25	> 75	> 75	0 to 25	0 to 25	0 to 25	1 to 10
O=C(O)c1ccn(C(=O)N2CC3CN(Cc4ccc(N5CCCC5)cc4C(F)(F)F)CC3C2)n1 (stereo not shown) [Example 123, 1-(5-(4-(pyrrolidin-1-yl)-2-(trifluoromethyl)benzyl)octahydro-pyrrolo[3,4-c]pyrrole-2-carbonyl)-1H-pyrazole-3-carboxylic acid]	50 to 75	> 75	> 75	0 to 25	0 to 25	> 75	

— patent US10266497B2 (ABIDE THERAPEUTICS, INC., priority 2017, dated 2019)
